This assay concerns the target EXON 20 Insertion(NPG) Ba/F3 Cell (Homo sapiens, UniProt P00533, INS772GNP, cells depend on it). As to the kind of experiment: Measurement of cancer cell growth inhibitory effect (MTT assay). Format: cell-based, Murine. Conditions: Ba/F3 cells expressing EGFR with NPG added at D770_N771, 72 hours treatment, read at 595 nm, read-out: EXON 20 Insertion(NPG) Ba/F3 Cell(IC50). From the text:
Since there is no commercially available lung cancer cell line with EGFR insertion mutation, a method of inserting 3 to 4 amino acids at each site using site direct mutagenesis in a wild type EGFR expression vector was attempted. In the present invention, first, a vector with three amino acids of NPG added to the D770_N771 site with the highest frequency was used, and Ba/F3 cell line was used for expression of these genes.
When the oncogenic mutant EGFR is expressed, dependence on the mutant EGFR for cell growth and apoptosis occurs without IL-3. Therefore, substances that show effective inhibition of mutant EGFR suppress cell growth and induce apoptosis, so the anticancer effect of cells was analyzed through MTT assay.
1×10^4 cells of the previously constructed stable cells were put into a 96 well plate and incubated overnight, and then the compound of Example was dose dependently treated. After 72 hours, MTT reagent was added, and after 3 hours stop buffer (10% SDS) was added. After 24 hours of incubation, the results were analyzed by reading at 595 nm. […] As a control drug, Mobocertinib was used.
(In general: Tetrazolium assays rely on reduction of a dye to a coloured formazan, in cell work by metabolically active cells.)
Sequence of EXON 20 Insertion(NPG) Ba/F3 Cell (P00533 with tags, fused parts or gaps INS772GNP): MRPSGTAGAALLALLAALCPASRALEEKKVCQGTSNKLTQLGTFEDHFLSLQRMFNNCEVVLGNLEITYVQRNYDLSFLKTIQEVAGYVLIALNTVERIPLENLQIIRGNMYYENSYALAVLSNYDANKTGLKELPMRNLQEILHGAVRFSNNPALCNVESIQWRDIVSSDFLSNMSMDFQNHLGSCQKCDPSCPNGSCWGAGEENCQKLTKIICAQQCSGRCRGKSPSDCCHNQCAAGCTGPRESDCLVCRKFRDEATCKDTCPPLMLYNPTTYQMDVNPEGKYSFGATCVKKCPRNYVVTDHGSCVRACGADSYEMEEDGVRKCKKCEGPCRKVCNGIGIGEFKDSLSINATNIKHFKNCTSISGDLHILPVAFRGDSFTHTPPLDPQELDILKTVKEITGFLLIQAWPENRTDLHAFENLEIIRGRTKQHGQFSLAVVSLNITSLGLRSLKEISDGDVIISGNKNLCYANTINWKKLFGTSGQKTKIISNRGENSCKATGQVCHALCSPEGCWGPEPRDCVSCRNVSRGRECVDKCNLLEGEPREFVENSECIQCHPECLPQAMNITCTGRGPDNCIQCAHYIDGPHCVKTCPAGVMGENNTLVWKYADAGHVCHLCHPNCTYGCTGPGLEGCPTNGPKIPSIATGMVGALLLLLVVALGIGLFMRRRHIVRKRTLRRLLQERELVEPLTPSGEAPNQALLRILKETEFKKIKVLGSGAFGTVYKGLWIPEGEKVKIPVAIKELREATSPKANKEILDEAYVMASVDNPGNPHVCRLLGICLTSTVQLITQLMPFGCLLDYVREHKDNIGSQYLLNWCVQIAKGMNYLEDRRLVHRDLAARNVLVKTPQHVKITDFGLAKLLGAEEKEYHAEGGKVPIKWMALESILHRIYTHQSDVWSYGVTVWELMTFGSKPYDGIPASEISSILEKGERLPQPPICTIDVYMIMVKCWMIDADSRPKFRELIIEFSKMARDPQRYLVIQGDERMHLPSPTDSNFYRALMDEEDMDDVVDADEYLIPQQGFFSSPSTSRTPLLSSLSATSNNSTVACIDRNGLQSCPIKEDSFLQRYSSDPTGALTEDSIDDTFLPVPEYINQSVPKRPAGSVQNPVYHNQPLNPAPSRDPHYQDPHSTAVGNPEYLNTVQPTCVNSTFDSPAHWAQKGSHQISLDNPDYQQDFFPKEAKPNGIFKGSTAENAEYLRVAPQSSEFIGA
On to `C=CC(=O)Nc1cc(Nc2ncc(C(=O)OCC)c(Nc3ccccc3-c3ccn(C)n3)n2)c(OC)cc1N(C)CCN(C)C` [Example 20, ethyl 2-((5-acrylamido-4-((2-(dimethylamino)ethyl)(methyl)amino)-2-methoxyphenyl)amino)-4-((2-(1-methyl-1H-pyrazol-3-yl)phenyl)amino)pyrimidin-5-carboxylate], for which the GI50 lay within 25 to 50 nM.
Regarding `C=CC(=O)Nc1cc(Nc2ncc(C(=O)OCC)c(Nc3ccccc3-n3cccn3)n2)c(OC)cc1N(C)CCN(C)C` [Example 21, ethyl 4-((2-(1H-pyrazol-1-yl)phenyl)amino)-2-((5-acrylamido-4-((2-(dimethylamino)ethyl)(methyl)amino)-2-methoxyphenyl)amino)pyrimidin-5-carboxylate], the GI50 is 25 to 50 nM.
Take `C=CC(=O)Nc1cc(Nc2ncc(C(=O)OC3CC3)c(Nc3ccccc3-c3ccn(C)n3)n2)c(OC)cc1N(C)CCN(C)C` [Example 22, cyclopropyl 2-((5-acrylamido-4-((2-(dimethylamino)ethyl)(methyl)amino)-2-methoxyphenyl)amino)-4-((2-(1-methyl-1H-pyrazol-3-yl)phenyl)amino)pyrimidin-5-carboxylate]: the GI50 is 25 to 50 nM.
The figure for `C=CC(=O)Nc1cc(Nc2ncc(C(=O)OC(C)C)c(Nc3ccccc3-c3ccn(C)n3)n2)c(OC)cc1N1CCN(C)CC1` [Example 23, Isopropyl 2-((5-acrylamido-2-methoxy-4-(4-methylpiperizin-l-yl)phenyl)amino)-4-((2-(1-methyl-1H-pyrazol-3-yl)phenyl)amino)pyrimidin-5-carboxylate] is 25 to 50 nM.
To `C=CC(=O)Nc1cc(Nc2ncc(C(=O)OC(C)C)c(Nc3ccccc3-c3ccn(C)n3)n2)c(OC)cc1N1CCOCC1` [Example 24, Isopropyl 2-((5-acrylamido-2-methoxy-4-morpholinophenyl)amino)-4-((2-(1-methyl-1H-pyrazol-3-yl)phenyl)amino)pyrimidin-5-carboxylate] belongs 25 to 50 nM; to `C=CC(=O)Nc1cc(Nc2ncc(C(=O)OC(C)C)c(Nc3ccccc3-c3ccn(C)n3)n2)c(OC)cc1N1CC[C@H](N(C)C)C1` [Example 25, Isopropyl(S)-2-((5-acrylamido-4-(3-(dimethylamino)pyrrolidin-1-yl)-2-methoxyphenyl)amino)-4-((2-(1-methyl-1H-pyrazol-3-yl)phenyl)amino)pyrimidin-5-carboxylate], 25 to 50 nM.
To `C=CC(=O)Nc1cc(Nc2ncc(C(=O)OC(C)C)c(Nc3ccccc3-c3ccn(C)n3)n2)c(OC)cc1N1CC[C@@H](N(C)C)C1` [Example 26, Isopropyl(R)-2-((5-acrylamido-4-(3-(dimethylamino)pyrrolidin-1-yl)-2-methoxyphenyl)amino)-4-((2-(1-methyl-1H-pyrazol-3-yl)phenyl)amino)pyrimidin-5-carboxylate] belongs 25 to 50 nM.
In the case of `C=CC(=O)Nc1cc(Nc2ncc(C(=O)OC(C)C)c(Nc3ccccc3-c3ccn(C)n3)n2)c(OC)cc1N(C)[C@@H]1CCN(C)C1` [Example 27, Isopropyl(R)-2-((5-acrylamido-2-methoxy-4-(methyl(1-methylpyrrolidin-3-yl)amino)phenyl)amino)-4-((2-(1-methyl-1H-pyrazol-3-yl)phenyl)amino)pyrimidin-5-carboxylate], the GI50 was in the range of 25 to 50 nM.
For `C=CC(=O)Nc1cc(Nc2ncc(C(=O)OC(C)C)c(Nc3ccccc3-c3ccn(C)n3)n2)c(OC)cc1N(C)[C@H]1CCN(C)C1` [Example 28, Isopropyl(S)-2-((5-acrylamido-2-methoxy-4-(methyl(1-methylpyrrolidin-3-yl)amino)phenyl)amino)-4-((2-(1-methyl-1H-pyrazol-3-yl)phenyl)amino)pyrimidin-5-carboxylate], the GI50 lay in the range of 25 to 50 nM.
To `C=CC(=O)Nc1cc(Nc2ncc(Cl)c(Nc3ccccc3-c3ccn(C)n3)n2)c(OC)cc1N(C)CCN(C)C` [Example 29, N-(5-((5-chloro-4-((2-(1-methyl-1H-pyrazol-3-yl)phenyl)amino)pyrimidin-2-yl)amino)-2-((2-(dimethylamino)ethyl)(methyl)amino)-4-methoxyphenyl)acrylamide] belongs less than 25 nM.
The figure for `C=CC(=O)Nc1cc(Nc2ncc(Cl)c(Nc3ccccc3-n3cccn3)n2)c(OC)cc1N(C)CCN(C)C` [Example 30, N-(5-((4-((2-(1H-pyrazol-1-yl)phenyl)amino)-5-chloropyrimidin-2-yl)amino)-2-((2-(dimethylamino)ethyl)(methyl)amino)-4-methoxyphenyl)acrylamide] is less than 25 nM; for `C=CC(=O)Nc1cc(Nc2ncc(Cl)c(Nc3ccccc3-c3ccn(C)n3)n2)c(OC)cc1N1CCN(C)CC1` [Example 31, N-(5-((5-chloro-4-((2-(1-methyl-1H-pyrazol-3-yl)phenyl)amino)pyrimidin-2-yl)amino)-4-methoxy-2-(4-methylpiperizin-1-yl)phenyl)acrylamide] it is 25 to 50 nM.
The figure for `C=CC(=O)Nc1cc(Nc2ncc(Cl)c(Nc3ccccc3-c3ccn(C)n3)n2)c(OC)cc1N1CCOCC1` [Example 32, N-(5-((5-chloro-4-((2-(1-methyl-1H-pyrazol-3-yl)phenyl)amino)pyrimidin-2-yl)amino)-4-methoxy-2-morpholinophenyl)acrylamide] is 25 to 50 nM; for `C=CC(=O)Nc1cc(Nc2ncc(Cl)c(Nc3ccccc3-c3ccn(C)n3)n2)c(OC)cc1N1CC[C@H](N(C)C)C1` [Example 33, (S)-N-(5-((5-chloro-4-((2-(1-methyl-1H-pyrazol-3-yl)phenyl)amino)pyrimidin-2-yl)amino)-2-(3-(dimethylamino)pyrrolidin-1-yl)-4-methoxyphenyl)acrylamide] it is 25 to 50 nM.
On to `C=CC(=O)Nc1cc(Nc2ncc(Cl)c(Nc3ccccc3-c3ccn(C)n3)n2)c(OC)cc1N1CC[C@@H](N(C)C)C1` [Example 34, (R)-N-(5-((5-chloro-4-((2-(1-methyl-1H-pyrazol-3-yl)phenyl)amino)pyrimidin-2-yl)amino)-2-(3-(dimethylamino)pyrrolidin-1-yl)-4-methoxyphenyl)acrylamide], for which the GI50 lay in the range of 25 to 50 nM.
To `C=CC(=O)Nc1cc(Nc2ncc(Cl)c(Nc3ccccc3-c3ccn(C)n3)n2)c(OC)cc1N(C)[C@@H]1CCN(C)C1` [Example 35, (R)-N-(5-((5-chloro-4-((2-(1-methyl-1H-pyrazol-3-yl)phenyl)amino)pyrimidin-2-yl)amino)-4-methoxy-2-(methyl(1-methylpyrrolidin-3-yl)amino)phenyl)acrylamide] belongs 25 to 50 nM; to `C=CC(=O)Nc1cc(Nc2ncc(Cl)c(Nc3ccccc3-c3ccn(C)n3)n2)c(OC)cc1N(C)[C@H]1CCN(C)C1` [Example 36, (S)-N-(5-((5-chloro-4-((2-(1-methyl-1H-pyrazol-3-yl)phenyl)amino)pyrimidin-2-yl)amino)-4-methoxy-2-(methyl(1-methylpyrrolidin-3-yl)amino)phenyl)acrylamide], 25 to 50 nM; to `C=CC(=O)Nc1cc(Nc2cc(Nc3ccccc3-n3cccn3)ncn2)c(OC)cc1N(C)CCN(CC)CC` [Example 37, N-(5-((6-((2-(1H-pyrazol-1-yl)phenyl)amino)pyrimidin-4-yl)amino)-2-((2-(diethylamino)ethyl)(methyl)amino)-4-methoxyphenyl)acrylamide], 25 to 50 nM.
Turning to `C=CC(=O)Nc1cc(Nc2cc(Nc3ccccc3-n3cccn3)ncn2)c(OC)cc1N1CC2COCC2C1` (stereo not drawn) [Example 38, N-(5-((6-((2-(1H-pyrazol-1-yl)phenyl)amino)pyrimidin-4-yl)amino)-4-methoxy-2-(tetrahydro-1H-furo[3,4-c]pyrrol-5 (3H)-yl)phenyl)acrylamide], the GI50 was 25 to 50 nM.
The figure for `C=CC(=O)Nc1cc(Nc2cc(Nc3ccccc3-n3cccn3)ncn2)c(OC)cc1N1C2CCC1COC2` [Example 39, N-(5-((6-((2-(1H-pyrazol-1-yl)phenyl)amino)pyrimidin-4-yl)amino)-2-(3-oxa-8-azabicyclo[3.2.1]octan-8-yl)-4-methoxyphenyl)acrylamide] is 25 to 50 nM.
To `C=CC(=O)Nc1cc(Nc2ncc(C(=O)OC(C)C)c(-c3cn(C)c4ccccc34)n2)c(OC)cc1N(C)CCN(C)C` [Mobocertinib, reference compound] belongs 50 to 500 nM.

The values above are taken from US20240166663A1, “NOVEL PYRIMIDINE DERIVATIVE SHOWING INHIBITION EFFECT ON GROWTH OF CANCER CELLS” (ONCOBIX CO., LTD., priority 2021, published 2024).
